Results taken from US10766884B2 (Pfizer Inc., priority 2018, dated 2020).

What was measured:
CDK4/Cyclin D1 = CDK4/Cyclin D1 (Homo sapiens (Human), UniProt P11802); experiment: CDK4/Cyclin D1 mobility shift assay; type: biochemical; settings: activated CDK4/Cyclin D1, 3.5 mM ATP, Morrison fit; read-out: CDK4D1 Ki
CDK4 = CDK4 (Homo sapiens (Human), UniProt P11802); experiment: Phospho-Serine 795 Rb ELISA assay in JEKO-1 cells; type: cell-based; settings: overnight treatment, phospho-Rb S795, read-out: CDK4 pRB S795 ELISA JEKO-1 cells IC50
CDK6/Cyclin D3 = CDK6/Cyclin D3 (Homo sapiens (Human), UniProt Q00534); experiment: CDK6/Cyclin D3 mobility shift assay; type: biochemical; settings: activated CDK6/Cyclin D3, 3.5 mM ATP, Morrison fit; read-out: CDK6_D3 Ki
CDK6 = CDK6 (Homo sapiens (Human), UniProt Q00534); experiment: Phospho-Serine 795 Rb ELISA assay in MV4-11 cells; type: cell-based; settings: overnight treatment, phospho-Rb S795, read-out: CDK6 pRB S795 ELISA MV4-11 cells IC50
CDK6, sequence (Q00534 whole entry): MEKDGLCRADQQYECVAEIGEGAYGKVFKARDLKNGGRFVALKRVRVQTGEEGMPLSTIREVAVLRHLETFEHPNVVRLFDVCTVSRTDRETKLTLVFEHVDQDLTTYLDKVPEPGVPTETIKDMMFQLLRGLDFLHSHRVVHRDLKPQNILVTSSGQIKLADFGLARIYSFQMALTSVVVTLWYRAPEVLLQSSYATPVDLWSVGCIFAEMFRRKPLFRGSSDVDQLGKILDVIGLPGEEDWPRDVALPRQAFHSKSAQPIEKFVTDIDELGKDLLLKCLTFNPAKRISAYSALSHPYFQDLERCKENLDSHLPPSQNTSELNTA
CDK6, sequence (P30281 whole entry partner): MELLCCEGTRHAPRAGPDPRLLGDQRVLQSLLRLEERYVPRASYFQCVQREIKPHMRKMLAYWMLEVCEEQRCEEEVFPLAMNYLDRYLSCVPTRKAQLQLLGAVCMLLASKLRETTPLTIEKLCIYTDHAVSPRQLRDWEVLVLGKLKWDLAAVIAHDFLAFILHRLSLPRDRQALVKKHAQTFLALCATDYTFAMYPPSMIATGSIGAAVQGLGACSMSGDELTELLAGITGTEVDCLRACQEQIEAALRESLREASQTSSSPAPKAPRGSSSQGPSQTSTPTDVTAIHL

CDK6/Cyclin D3, sequence (Q00534 whole entry): as the sequence (Q00534 whole entry) above
CDK6/Cyclin D3, sequence (P30281 whole entry partner): as the sequence (P30281 whole entry partner) above
CDK4, sequence (P11802 2-303): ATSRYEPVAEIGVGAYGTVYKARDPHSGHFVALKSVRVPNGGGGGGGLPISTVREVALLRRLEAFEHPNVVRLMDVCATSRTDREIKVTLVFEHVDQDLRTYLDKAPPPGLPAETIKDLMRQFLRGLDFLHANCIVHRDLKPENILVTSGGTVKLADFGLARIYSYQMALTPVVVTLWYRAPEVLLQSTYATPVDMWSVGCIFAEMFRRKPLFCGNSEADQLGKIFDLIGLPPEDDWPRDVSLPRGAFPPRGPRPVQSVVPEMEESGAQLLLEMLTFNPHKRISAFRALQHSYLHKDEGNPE
CDK4, sequence (P24385 whole entry partner): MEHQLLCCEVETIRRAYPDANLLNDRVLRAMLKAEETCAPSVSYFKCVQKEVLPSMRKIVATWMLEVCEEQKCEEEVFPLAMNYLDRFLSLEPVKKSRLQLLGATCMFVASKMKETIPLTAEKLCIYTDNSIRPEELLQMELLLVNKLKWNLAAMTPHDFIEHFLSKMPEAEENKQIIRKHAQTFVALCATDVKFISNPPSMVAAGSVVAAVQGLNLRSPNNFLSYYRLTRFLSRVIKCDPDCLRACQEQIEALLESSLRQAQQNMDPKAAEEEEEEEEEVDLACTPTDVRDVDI
CDK4/Cyclin D1, sequence (P11802 whole entry): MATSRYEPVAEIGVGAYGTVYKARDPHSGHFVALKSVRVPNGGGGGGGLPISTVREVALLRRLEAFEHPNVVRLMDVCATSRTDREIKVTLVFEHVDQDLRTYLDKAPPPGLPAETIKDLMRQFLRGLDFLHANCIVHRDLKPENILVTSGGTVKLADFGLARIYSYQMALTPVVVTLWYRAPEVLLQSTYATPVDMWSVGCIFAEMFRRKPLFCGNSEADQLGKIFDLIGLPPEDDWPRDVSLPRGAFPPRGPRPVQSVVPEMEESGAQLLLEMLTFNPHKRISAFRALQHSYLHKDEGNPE
CDK4/Cyclin D1, sequence (P24385 whole entry partner): as the sequence (P24385 whole entry partner) above

Row | Ki (CDK4/Cyclin D1) [nM] | IC50 (CDK4) [nM] | Ki (CDK6/Cyclin D3) [nM] | IC50 (CDK6) [nM] | SMILES
1 | 2.4 | 137 | 127 | 858 | CC(C)n1c(CN2CC(C)(O)C2)nc2c(F)cc(-c3nc(N[C@@H]4CCOC[C@H]4O)ncc3Cl)cc21 [Example H01, 1,5-anhydro-3-[(5-chloro-4-{4-fluoro-2-[(3-hydroxy-3-methylazetidin-1-yl)methyl]-1-(propan-2-yl)-1H-benzimidazol-6-yl}pyrimidin-2-yl)amino]-2,3-dideoxy-D-threo-pentitol]
2 | 0.8 | 52.1 | 20 | 118 | CC(C)n1c(CN(C)C)nc2c(F)cc(-c3nc(N[C@@H]4CCOC[C@H]4O)ncc3Cl)cc21 [Example H02, 1,5-anhydro-3-[(5-chloro-4-{2-[(dimethylamino)methyl]-4-fluoro-1-(propan-2-yl)-1H-benzimidazol-6-yl}pyrimidin-2-yl)amino]-2,3-dideoxy-D-threo-pentitol]
3 | 1.8 | 155 | 66.9 | 423 | CC(C)n1c(CN2CC(O)C2)nc2c(F)cc(-c3nc(N[C@@H]4CCOC[C@H]4O)ncc3Cl)cc21 [Example H03, 1,5-anhydro-3-[(5-chloro-4-{4-fluoro-2-[(3-hydroxyazetidin-1-yl)methyl]-1-(propan-2-yl)-1H-benzimidazol-6-yl}pyrimidin-2-yl)amino]-2,3-dideoxy-D-threo-pentitol]
4 | 0.8 | 63.4 | 38.2 | 221 | CC(C)n1c(CN2C[C@@](C)(O)[C@@H]2C)nc2c(F)cc(-c3nc(N[C@@H]4CCOC[C@H]4O)ncc3Cl)cc21 [Example H04, 1,5-anhydro-3-({5-chloro-4-[4-fluoro-2-{[(2S,3R)-3-hydroxy-2,3-dimethylazetidin-1-yl]methyl}-1-(propan-2-yl)-1H-benzimidazol-6-yl]pyrimidin-2-yl}amino)-2,3-dideoxy-D-threo-pentitol]
5 | 4.5 | 249 | 93.3 | 1470 | CC(C)n1c(CNC2COC2)nc2c(F)cc(-c3nc(N[C@@H]4CCOC[C@H]4O)ncc3Cl)cc21 [Example H05, 1,5-anhydro-3-({5-chloro-4-[4-fluoro-2-{[(oxetan-3-yl)amino]methyl}-1-(propan-2-yl)-1H-benzimidazol-6-yl]pyrimidin-2-yl}amino)-2,3-dideoxy-D-threo-pentitol]
6 | 1.1 | 79.6 | 35.6 | 343 | CC(C)n1c(CN2CC(F)C2)nc2c(F)cc(-c3nc(N[C@@H]4CCOC[C@H]4O)ncc3Cl)cc21 [Example H06, 1,5-anhydro-3-[(5-chloro-4-{4-fluoro-2-[(3-fluoroazetidin-1-yl)methyl]-1-(propan-2-yl)-1H-benzimidazol-6-yl}pyrimidin-2-yl)amino]-2,3-dideoxy-D-threo-pentitol]
7 | 1.4 | 48.3 | 43 | 409 | CC(C)n1c(CN2CCC2)nc2c(F)cc(-c3nc(N[C@@H]4CCOC[C@H]4O)ncc3Cl)cc21 [Example H07, 1,5-anhydro-3-[(4-{2-[(azetidin-1-yl)methyl]-4-fluoro-1-(propan-2-yl)-1H-benzimidazol-6-yl}-5-chloropyrimidin-2-yl)amino]-2,3-dideoxy-D-threo-pentitol]
8 | 1.2 | 35.6 | 44.5 | 306 | CC(C)NCc1nc2c(F)cc(-c3nc(N[C@@H]4CCOC[C@H]4O)ncc3Cl)cc2n1C(C)C [Example H08, 1,5-anhydro-3-({5-chloro-4-[4-fluoro-1-(propan-2-yl)-2-{[(propan-2-yl)amino]methyl}-1H-benzimidazol-6-yl]pyrimidin-2-yl}amino)-2,3-dideoxy-D-threo-pentitol]
